Data published in ChEMBL document CHEMBL1152560, “Substituted 2-arylbenzothiazoles as kinase inhibitors: hit-to-lead optimization” (Bioorg Med Chem, 2009).

Experiments:
[1] = molecular target: T1, Ephrin type-A receptor 3 (Homo sapiens) (UniProt P29320); assay: Residual activity of EPHA3 at 0.1 uM by microplate scintillation counting
T1 sequence (whole entry): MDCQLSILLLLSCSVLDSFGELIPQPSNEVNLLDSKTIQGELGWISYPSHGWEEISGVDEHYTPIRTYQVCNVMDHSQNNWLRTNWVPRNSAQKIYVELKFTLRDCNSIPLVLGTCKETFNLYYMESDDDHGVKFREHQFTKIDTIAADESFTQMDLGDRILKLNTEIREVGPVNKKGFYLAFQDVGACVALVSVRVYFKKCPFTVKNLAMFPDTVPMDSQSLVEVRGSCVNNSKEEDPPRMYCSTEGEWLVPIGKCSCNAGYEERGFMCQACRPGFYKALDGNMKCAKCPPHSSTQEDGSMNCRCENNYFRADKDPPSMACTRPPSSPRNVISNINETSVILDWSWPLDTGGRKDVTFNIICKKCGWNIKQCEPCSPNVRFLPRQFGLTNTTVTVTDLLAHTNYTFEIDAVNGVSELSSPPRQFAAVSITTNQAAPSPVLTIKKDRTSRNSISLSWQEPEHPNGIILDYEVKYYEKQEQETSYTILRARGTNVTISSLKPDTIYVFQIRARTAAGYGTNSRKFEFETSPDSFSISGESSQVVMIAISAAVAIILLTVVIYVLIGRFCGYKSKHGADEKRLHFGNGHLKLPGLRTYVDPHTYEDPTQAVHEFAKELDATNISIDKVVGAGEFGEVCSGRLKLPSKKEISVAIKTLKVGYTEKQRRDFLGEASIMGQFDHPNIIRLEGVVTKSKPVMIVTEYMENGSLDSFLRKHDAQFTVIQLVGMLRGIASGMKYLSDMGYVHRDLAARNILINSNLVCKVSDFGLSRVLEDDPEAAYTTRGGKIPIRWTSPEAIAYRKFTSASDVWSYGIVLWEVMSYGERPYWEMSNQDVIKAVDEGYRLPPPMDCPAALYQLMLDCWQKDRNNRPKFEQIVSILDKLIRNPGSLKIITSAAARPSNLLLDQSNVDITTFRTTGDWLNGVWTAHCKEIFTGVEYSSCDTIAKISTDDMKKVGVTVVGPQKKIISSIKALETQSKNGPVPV

[2] = tested on: Serine/threonine-protein kinase B-raf (Homo sapiens), P15056 [V600E]; assay: Residual activity of B-RAF V600E mutant at 0.1 uM by microplate scintillation counting
Sequence of Serine/threonine-protein kinase B-raf (Homo sapiens), P15056 [V600E] (P15056 whole entry V600E): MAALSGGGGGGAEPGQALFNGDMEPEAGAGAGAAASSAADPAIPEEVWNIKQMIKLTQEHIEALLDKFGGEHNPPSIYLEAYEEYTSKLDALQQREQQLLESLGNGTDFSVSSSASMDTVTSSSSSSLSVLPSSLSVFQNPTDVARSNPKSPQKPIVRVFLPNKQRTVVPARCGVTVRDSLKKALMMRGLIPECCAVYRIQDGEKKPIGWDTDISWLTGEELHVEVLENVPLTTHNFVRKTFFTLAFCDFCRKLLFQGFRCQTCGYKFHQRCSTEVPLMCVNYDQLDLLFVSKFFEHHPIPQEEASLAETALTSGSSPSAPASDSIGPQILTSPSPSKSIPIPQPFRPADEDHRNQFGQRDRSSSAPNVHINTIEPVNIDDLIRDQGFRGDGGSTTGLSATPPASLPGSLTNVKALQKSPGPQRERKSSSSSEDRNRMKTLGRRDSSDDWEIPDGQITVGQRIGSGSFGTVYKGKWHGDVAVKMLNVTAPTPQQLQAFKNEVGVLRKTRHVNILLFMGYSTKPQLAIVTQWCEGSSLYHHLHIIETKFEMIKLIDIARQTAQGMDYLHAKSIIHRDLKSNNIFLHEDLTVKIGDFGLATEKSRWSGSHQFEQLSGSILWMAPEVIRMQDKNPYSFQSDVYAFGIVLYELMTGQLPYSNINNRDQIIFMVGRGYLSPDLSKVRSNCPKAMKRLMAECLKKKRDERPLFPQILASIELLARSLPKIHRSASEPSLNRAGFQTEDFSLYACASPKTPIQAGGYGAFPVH

[3] = molecular target: T2, Protein kinase C iota type (Homo sapiens) (UniProt P41743); assay: Residual activity of PKCiota at 10 uM by microplate scintillation counting
T2 sequence (whole entry): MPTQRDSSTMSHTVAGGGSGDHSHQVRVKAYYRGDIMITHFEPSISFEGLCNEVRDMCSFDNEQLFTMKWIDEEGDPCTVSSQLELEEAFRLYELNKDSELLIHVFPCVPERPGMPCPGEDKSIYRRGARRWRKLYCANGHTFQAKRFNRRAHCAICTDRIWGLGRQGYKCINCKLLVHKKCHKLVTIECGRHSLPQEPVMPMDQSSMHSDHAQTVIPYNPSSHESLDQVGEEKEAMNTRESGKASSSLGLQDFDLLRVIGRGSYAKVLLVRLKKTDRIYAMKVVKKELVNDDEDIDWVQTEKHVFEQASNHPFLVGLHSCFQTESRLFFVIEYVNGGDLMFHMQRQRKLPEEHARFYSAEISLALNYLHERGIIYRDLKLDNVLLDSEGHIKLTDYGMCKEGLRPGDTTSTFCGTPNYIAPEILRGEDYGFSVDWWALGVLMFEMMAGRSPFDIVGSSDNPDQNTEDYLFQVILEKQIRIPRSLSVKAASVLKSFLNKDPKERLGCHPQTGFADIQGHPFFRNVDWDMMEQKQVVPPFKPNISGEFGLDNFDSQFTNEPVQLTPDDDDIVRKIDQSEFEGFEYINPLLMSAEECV

[4] = molecular target: T3, Serine/threonine-protein kinase Nek1 (Homo sapiens) (UniProt Q96PY6); assay: Residual activity of NEK1 at 1 uM by microplate scintillation counting
T3 sequence (whole entry): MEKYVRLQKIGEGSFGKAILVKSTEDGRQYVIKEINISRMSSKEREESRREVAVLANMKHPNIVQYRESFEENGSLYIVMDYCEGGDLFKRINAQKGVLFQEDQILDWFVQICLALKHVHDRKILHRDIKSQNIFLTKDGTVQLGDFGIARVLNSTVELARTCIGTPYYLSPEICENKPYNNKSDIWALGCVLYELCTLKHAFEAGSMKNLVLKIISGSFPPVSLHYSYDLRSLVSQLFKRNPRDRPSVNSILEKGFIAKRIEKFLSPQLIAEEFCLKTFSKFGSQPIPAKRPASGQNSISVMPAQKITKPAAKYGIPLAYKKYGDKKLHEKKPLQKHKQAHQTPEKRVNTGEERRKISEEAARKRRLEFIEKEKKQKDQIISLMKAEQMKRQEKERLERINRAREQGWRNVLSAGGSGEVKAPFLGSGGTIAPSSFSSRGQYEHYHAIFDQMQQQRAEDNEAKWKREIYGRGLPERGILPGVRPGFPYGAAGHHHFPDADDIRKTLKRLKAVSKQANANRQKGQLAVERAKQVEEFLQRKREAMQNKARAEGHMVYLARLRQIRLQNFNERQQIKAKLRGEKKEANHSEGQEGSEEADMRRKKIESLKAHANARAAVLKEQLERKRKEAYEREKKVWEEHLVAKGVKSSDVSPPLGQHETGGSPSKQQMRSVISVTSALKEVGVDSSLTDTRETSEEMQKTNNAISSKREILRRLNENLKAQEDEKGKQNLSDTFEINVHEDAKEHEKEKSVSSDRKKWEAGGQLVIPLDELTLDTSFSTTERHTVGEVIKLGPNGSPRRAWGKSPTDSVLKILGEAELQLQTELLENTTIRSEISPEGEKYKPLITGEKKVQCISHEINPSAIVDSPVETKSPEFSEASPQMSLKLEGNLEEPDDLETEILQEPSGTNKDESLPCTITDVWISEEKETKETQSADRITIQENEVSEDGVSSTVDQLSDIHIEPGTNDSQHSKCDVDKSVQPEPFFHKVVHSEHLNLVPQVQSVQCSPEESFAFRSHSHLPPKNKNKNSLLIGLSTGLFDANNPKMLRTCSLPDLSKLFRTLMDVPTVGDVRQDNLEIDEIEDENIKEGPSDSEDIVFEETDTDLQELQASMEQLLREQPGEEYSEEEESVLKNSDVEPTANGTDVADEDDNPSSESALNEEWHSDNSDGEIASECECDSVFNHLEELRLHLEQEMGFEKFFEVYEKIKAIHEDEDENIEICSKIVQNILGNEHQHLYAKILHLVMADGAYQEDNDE

[5] = molecular target: Proto-oncogene tyrosine-protein kinase ROS (Homo sapiens) (UniProt P08922); assay: Residual activity of ROS at 1 uM by microplate scintillation counting
Sequence of Proto-oncogene tyrosine-protein kinase ROS (Homo sapiens) (P08922 whole entry): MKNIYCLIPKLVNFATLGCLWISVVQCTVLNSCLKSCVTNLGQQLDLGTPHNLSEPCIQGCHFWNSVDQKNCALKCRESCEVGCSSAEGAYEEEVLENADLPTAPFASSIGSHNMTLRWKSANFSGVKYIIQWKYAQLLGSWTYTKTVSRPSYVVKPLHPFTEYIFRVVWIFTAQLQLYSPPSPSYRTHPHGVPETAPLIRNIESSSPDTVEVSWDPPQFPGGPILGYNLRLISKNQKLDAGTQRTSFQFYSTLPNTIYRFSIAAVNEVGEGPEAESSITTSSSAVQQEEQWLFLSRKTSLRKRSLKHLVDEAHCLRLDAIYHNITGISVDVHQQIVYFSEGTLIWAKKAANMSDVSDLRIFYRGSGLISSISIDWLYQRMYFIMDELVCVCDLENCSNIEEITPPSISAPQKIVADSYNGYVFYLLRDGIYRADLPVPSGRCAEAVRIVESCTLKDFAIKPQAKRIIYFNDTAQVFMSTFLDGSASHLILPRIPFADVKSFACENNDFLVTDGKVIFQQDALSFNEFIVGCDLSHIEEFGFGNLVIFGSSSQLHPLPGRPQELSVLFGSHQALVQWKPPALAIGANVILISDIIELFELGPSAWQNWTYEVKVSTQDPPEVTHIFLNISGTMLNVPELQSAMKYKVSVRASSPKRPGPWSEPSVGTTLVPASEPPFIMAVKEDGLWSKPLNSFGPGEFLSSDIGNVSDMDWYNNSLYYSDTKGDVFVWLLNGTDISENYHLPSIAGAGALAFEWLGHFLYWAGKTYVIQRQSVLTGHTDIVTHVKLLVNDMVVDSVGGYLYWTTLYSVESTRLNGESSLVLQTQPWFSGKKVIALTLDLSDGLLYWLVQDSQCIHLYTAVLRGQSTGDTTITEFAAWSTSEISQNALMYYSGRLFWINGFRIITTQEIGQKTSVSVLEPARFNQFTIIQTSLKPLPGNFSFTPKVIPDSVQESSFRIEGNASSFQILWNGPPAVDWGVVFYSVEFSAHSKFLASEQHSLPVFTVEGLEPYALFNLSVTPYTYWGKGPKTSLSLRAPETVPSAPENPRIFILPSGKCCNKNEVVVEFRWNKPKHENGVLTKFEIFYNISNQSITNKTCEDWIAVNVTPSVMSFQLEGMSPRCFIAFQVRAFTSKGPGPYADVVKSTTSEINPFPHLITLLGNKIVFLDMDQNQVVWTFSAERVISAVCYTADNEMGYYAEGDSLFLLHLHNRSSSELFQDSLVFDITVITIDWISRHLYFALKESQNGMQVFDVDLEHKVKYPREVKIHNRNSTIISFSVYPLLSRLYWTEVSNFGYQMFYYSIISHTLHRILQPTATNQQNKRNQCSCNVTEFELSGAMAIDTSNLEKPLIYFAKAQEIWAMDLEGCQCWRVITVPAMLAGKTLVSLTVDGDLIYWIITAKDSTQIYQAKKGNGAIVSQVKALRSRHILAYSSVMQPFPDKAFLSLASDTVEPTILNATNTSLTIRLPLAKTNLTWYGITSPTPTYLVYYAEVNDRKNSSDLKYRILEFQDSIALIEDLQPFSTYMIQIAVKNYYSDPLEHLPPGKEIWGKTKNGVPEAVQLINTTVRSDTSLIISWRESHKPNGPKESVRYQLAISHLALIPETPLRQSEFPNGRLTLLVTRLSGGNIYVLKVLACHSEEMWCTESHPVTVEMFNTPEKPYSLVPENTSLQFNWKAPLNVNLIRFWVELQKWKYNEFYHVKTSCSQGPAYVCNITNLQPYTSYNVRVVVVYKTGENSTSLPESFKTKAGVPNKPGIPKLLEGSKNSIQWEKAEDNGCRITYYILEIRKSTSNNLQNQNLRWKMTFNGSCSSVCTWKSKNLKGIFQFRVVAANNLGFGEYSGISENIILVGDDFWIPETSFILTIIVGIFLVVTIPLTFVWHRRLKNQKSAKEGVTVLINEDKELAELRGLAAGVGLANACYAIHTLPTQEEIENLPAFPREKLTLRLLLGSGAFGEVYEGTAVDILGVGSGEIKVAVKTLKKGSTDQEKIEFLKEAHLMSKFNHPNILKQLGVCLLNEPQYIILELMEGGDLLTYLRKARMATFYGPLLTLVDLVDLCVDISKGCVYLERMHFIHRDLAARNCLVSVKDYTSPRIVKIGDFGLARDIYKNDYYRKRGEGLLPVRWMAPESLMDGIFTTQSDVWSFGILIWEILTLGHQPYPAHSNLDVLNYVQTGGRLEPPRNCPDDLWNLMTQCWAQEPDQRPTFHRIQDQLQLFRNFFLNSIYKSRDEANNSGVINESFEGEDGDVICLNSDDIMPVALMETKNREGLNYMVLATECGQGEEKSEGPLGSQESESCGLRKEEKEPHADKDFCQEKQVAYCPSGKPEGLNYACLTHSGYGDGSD

[6] = molecular target: Ephrin type-A receptor 7 (Homo sapiens) (UniProt Q15375); assay: Residual activity of EPHA7 at 1 uM by microplate scintillation counting
Sequence of Ephrin type-A receptor 7 (Homo sapiens) (Q15375 28-998 limits assumed): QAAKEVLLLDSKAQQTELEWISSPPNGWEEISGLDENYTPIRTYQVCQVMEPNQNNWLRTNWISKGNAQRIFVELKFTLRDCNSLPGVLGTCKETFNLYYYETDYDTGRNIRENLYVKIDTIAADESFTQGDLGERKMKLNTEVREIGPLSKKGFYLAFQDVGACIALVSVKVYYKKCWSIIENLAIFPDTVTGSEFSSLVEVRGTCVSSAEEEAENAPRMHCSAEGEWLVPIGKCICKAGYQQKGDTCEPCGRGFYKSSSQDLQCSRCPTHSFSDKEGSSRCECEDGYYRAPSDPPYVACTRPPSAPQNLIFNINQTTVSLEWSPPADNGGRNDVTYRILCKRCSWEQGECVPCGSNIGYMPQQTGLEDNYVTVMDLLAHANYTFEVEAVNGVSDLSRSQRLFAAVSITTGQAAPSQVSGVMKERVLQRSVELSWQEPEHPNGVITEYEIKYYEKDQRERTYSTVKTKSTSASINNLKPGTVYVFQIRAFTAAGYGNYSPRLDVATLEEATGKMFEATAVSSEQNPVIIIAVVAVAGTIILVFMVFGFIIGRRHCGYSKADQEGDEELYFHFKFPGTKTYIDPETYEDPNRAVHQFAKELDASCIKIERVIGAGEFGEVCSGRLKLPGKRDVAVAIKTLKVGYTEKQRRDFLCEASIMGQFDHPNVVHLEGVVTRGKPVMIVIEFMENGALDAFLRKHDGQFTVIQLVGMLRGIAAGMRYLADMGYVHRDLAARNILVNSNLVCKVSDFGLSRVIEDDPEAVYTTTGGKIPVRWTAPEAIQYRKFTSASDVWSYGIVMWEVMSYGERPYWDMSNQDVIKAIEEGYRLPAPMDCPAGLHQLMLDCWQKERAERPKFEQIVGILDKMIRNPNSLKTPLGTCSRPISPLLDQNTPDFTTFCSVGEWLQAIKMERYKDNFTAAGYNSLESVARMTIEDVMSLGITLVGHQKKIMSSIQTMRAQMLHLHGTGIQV

Row | residual activity [1] | residual activity [2] | residual activity [3] | residual activity [4] | residual activity [5] | residual activity [6] | SMILES
1 | 104% | 92% | 51% | 85% | 98% | 114% | COc1cc2c(Oc3ccc(-c4nc5ccccc5s4)cc3)ncnc2cc1OCCCN1CCCC1
2 | 92% | 91% | 44% | 85% | 97% | 102% | COc1cc2c(Oc3ccc(-c4nc5ccccc5s4)cc3)ncnc2cc1OCCCN1CCN(C)CC1
3 | 106% | 96% | 46% | 94% | 102% | 94% | COc1cc2c(Oc3ccc(-c4nc5ccccc5s4)cc3F)ncnc2cc1OCCCN1CCN(C)CC1
